Measured values reported in paper PMC9363195, “Preclinical Pharmacokinetics, Biodistribution, and Acute Toxicity Evaluation of Caerin 1.9 Peptide in Sprague Dawley Rats” (Evidence-based Complementary and Alternative Medicine : eCAM, 2022).
Peptide text beside a SMILES is read from it.

System: SD rats
Assay: Gross necropsy and weight of vital organs in acute toxicity study
Type: in vivo, Sprague Dawley rats
Settings: for Adrenals, absolute weight / Body weight / Brain, absolute weight / Heart, absolute weight / Kidneys, absolute weight / Liver, absolute weight / Ovaries, absolute weight / Spleen, absolute weight / Thymus, absolute weight / Thyroid, absolute weight / Uterus, absolute weight / Epididymides, absolute weight / Testis, absolute weight: day 15, mean ± SD
Procedure: Forty SD rats (20 males and 20 females) were randomly divided into 4 groups (Figure 1). All rats were given F3 once on the day of the experiment.
Twelve SD rats (6 males, 6 females) were given a daily subcutaneous injection of F3 at a dose of 10.0 mg/kg for consecutive 14 days. The first day of administration was recorded as day 1.
For 14 days, the body weight was measured before F3 administration on the first day of the experiment and once a week thereafter, with additional measurements on the day before and on the day of the planned autopsy. Food intake was recorded once a week. The rats were anesthetized by inhalation of 70% CO2/30% O2 before dissection, and blood samples were taken for hematology and biochemical analysis. The collected tissue was weighed and preserved for pathological examination.
After blood was collected at the predetermined time points, all rats were euthanized and subjected to a comprehensive general autopsy, which included a thorough examination of the external surface of the body, all foramen, cranial cavity, external surface of the brain, chest, abdomen, pelvic cavity, viscera, cervix, and genitalia. The adrenal gland, brain (brain, cerebellum, and brain stem), epididymis, heart, kidney, liver, ovary, spleen, testis, thymus, thyroid gland, and uterus were carefully collected, weighed, and documented before being kept in 10% neutral formalin buffer (10% NBF).

[1] = female SD rats, s.c. 10.0 mg/kg daily x14 d, n=6
[2] = female SD rats, single s.c. 1.0 mg/kg, n=5
[3] = female SD rats, single s.c. 10.0 mg/kg, n=5
[4] = female SD rats, single s.c. 100.0 mg/kg, n=5
[5] = male SD rats, s.c. 10.0 mg/kg daily x14 d, n=6
[6] = male SD rats, single s.c. 1.0 mg/kg, n=5
[7] = male SD rats, single s.c. 10.0 mg/kg, n=5
[8] = male SD rats, single s.c. 100.0 mg/kg, n=5

In the case of CC[C@H](C)[C@H](NC(=O)[C@H](CO)NC(=O)CNC(=O)[C@H](CC(C)C)NC(=O)[C@@H](NC(=O)CNC(=O)[C@H](Cc1ccccc1)NC(=O)[C@H](CC(C)C)NC(=O)CN)C(C)C)C(=O)N[C@@H](C)C(=O)N[C@@H](CCCCN)C(=O)N[C@@H](Cc1c[nH]cn1)C(=O)N[C@H](C(=O)N[C@@H](CC(C)C)C(=O)N1CCC[C@H]1C(=O)N[C@@H](Cc1c[nH]cn1)C(=O)N[C@H](C(=O)N[C@H](C(=O)N1CCC[C@H]1C(=O)N[C@H](C(=O)N[C@H](C(=O)N[C@@H](C)C(=O)N[C@@H](CCC(=O)O)C(=O)N[C@@H](CCCCN)C(=O)N[C@@H](CC(C)C)C(N)=O)[C@@H](C)CC)C(C)C)C(C)C)C(C)C)C(C)C [F3, Caerin 1.9] (H-GLFGVLGSIAKHVLPHVVPVIAEKL-NH2), the gross necropsy findings (SD rats, s.c. 10.0 mg/kg daily x14 d, all rats) is reported as “diffuse subcutaneous bleeding at the injection site”, the “influence on absolute and relative organ weight” value (SD rats, single or repeated s.c. injections) is reported as “no influence” and the gross necropsy findings (SD rats, single s.c. 100.0 mg/kg) is reported as “skin scab and thickening at the administration site in all male rats and four female rats”. The “Adrenals, absolute weight” value [1] was 0.0793 ± 0.0101 g, the Body weight [1] was 233.55 ± 16.03 g and the “Brain, absolute weight” value [1] was 1.9517 ± 0.0244 g. For the same compound, the “Heart, absolute weight” value [1] was 1.1247 ± 0.1287 g, the “Kidneys, absolute weight” value [1] was 1.7017 ± 0.123 g and the “Liver, absolute weight” value [1] was 7.5278 ± 0.6229 g. The “Ovaries, absolute weight” value [1] was 0.093 ± 0.0151 g, the “Spleen, absolute weight” value [1] was 0.6908 ± 0.0750 g and the “Thymus, absolute weight” value [1] was 0.427 ± 0.0886 g. For the same compound, the “Thyroid, absolute weight” value [1] was 0.0242 ± 0.0053 g, the “Uterus, absolute weight” value [1] was 0.4797 ± 0.1336 g and the “Adrenals, absolute weight” value [2] was 0.0728 ± 0.0097 g. The Body weight [2] was 238.86 ± 7.94 g, the “Brain, absolute weight” value [2] was 2.0504 ± 0.0552 g and the “Heart, absolute weight” value [2] was 1.1086 ± 0.1559 g. The “Kidneys, absolute weight” value [2] was 1.9364 ± 0.118 g, the “Liver, absolute weight” value [2] was 7.7464 ± 0.2893 g and the “Ovaries, absolute weight” value [2] was 0.1036 ± 0.0242 g. The “Spleen, absolute weight” value [2] was 0.57 ± 0.1214 g, the “Thymus, absolute weight” value [2] was 0.5216 ± 0.0746 g and the “Thyroid, absolute weight” value [2] was 0.0282 ± 0.0029 g. The “Uterus, absolute weight” value [2] was 0.6212 ± 0.0948 g, the “Adrenals, absolute weight” value [3] was 0.0758 ± 0.0114 g and the Body weight [3] was 243.48 ± 10.53 g. For the same compound, the “Brain, absolute weight” value [3] was 2.0232 ± 0.044 g, the “Heart, absolute weight” value [3] was 0.999 ± 0.0943 g and the “Kidneys, absolute weight” value [3] was 1.8596 ± 0.1438 g. The “Liver, absolute weight” value [3] was 7.3692 ± 0.709 g, the “Ovaries, absolute weight” value [3] was 0.096 ± 0.0182 g and the “Spleen, absolute weight” value [3] was 0.5508 ± 0.0854 g. The “Thymus, absolute weight” value [3] was 0.535 ± 0.0762 g, the “Thyroid, absolute weight” value [3] was 0.0338 ± 0.005 g and the “Uterus, absolute weight” value [3] was 0.4664 ± 0.1167 g. The “Adrenals, absolute weight” value [4] was 0.076 ± 0.0116 g, the Body weight [4] was 238.86 ± 9.44 g and the “Brain, absolute weight” value [4] was 1.9918 ± 0.0665 g. The “Heart, absolute weight” value [4] was 1.0914 ± 0.0821 g, the “Kidneys, absolute weight” value [4] was 1.924 ± 0.0685 g and the “Liver, absolute weight” value [4] was 7.8582 ± 0.5028 g. For the same compound, the “Ovaries, absolute weight” value [4] was 0.108 ± 0.0223 g, the “Spleen, absolute weight” value [4] was 0.545 ± 0.0571 g and the “Thymus, absolute weight” value [4] was 0.478 ± 0.0725 g. The “Thyroid, absolute weight” value [4] was 0.0344 ± 0.0057 g, the “Uterus, absolute weight” value [4] was 0.5842 ± 0.0922 g and the “Adrenals, absolute weight” value [5] was 0.0612 ± 0.0041 g. The Body weight [5] was 342.57 ± 13.86 g, the “Brain, absolute weight” value [5] was 2.062 ± 0.1162 g and the “Epididymides, absolute weight” value [5] was 1.0408 ± 0.0584 g. The “Heart, absolute weight” value [5] was 1.5727 ± 0.082 g, the “Kidneys, absolute weight” value [5] was 2.5043 ± 0.0600 g and the “Liver, absolute weight” value [5] was 9.9218 ± 0.6297 g. The “Spleen, absolute weight” value [5] was 0.741 ± 0.1802 g, the “Testis, absolute weight” value [5] was 3.3857 ± 0.1596 g and the “Thymus, absolute weight” value [5] was 0.4433 ± 0.0724 g. The “Thyroid, absolute weight” value [5] was 0.0358 ± 0.0092 g, the “Adrenals, absolute weight” value [6] was 0.0564 ± 0.0078 g and the Body weight [6] was 380.74 ± 8.63 g. The “Brain, absolute weight” value [6] was 2.163 ± 0.0999 g, the “Epididymides, absolute weight” value [6] was 0.9464 ± 0.0677 g and the “Heart, absolute weight” value [6] was 1.485 ± 0.1408 g. The “Kidneys, absolute weight” value [6] was 2.8174 ± 0.3469 g, the “Liver, absolute weight” value [6] was 11.4326 ± 0.5122 g and the “Spleen, absolute weight” value [6] was 0.7378 ± 0.14 g. The “Testis, absolute weight” value [6] was 3.328 ± 0.2025 g, the “Thymus, absolute weight” value [6] was 0.545 ± 0.1054 g and the “Thyroid, absolute weight” value [6] was 0.0494 ± 0.0051 g. For the same compound, the “Adrenals, absolute weight” value [7] was 0.0654 ± 0.0073 g, the Body weight [7] was 397.34 ± 21.46 g and the “Brain, absolute weight” value [7] was 2.181 ± 0.1198 g. For the same compound, the “Epididymides, absolute weight” value [7] was 0.9564 ± 0.0348 g, the “Heart, absolute weight” value [7] was 1.728 ± 0.2013 g and the “Kidneys, absolute weight” value [7] was 3.151 ± 0.1131 g. For the same compound, the “Liver, absolute weight” value [7] was 12.5468 ± 0.8106 g, the “Spleen, absolute weight” value [7] was 0.8204 ± 0.1012 g and the “Testis, absolute weight” value [7] was 3.2666 ± 0.0813 g. For the same compound, the “Thymus, absolute weight” value [7] was 0.6256 ± 0.1022 g, the “Thyroid, absolute weight” value [7] was 0.0498 ± 0.0093 g and the “Adrenals, absolute weight” value [8] was 0.066 ± 0.0075 g. For the same compound, the Body weight [8] was 394.58 ± 14.44 g, the “Brain, absolute weight” value [8] was 2.1528 ± 0.0816 g and the “Epididymides, absolute weight” value [8] was 0.9956 ± 0.0459 g. The “Heart, absolute weight” value [8] was 1.6352 ± 0.0401 g, the “Kidneys, absolute weight” value [8] was 2.9858 ± 0.1294 g and the “Liver, absolute weight” value [8] was 12.2242 ± 0.7073 g. For the same compound, the “Spleen, absolute weight” value [8] was 0.793 ± 0.109 g, the “Testis, absolute weight” value [8] was 3.4182 ± 0.3029 g and the “Thymus, absolute weight” value [8] was 0.6608 ± 0.082 g. The “Thyroid, absolute weight” value [8] was 0.0482 ± 0.0075 g.
